Measurements taken from patent publication US5599925A, “Penam derivatives” (Otsuka Kagaku Kabushiki Kaisha, priority 1991, dated 1997).
Converted amounts (≈) assume the structure as drawn.

Columns and labels:
Assay in all cases: in vitro antibacterial potency test, doubling dilution agar plate method
Format in all cases: cell-based
[1] = tested on: Escherichia coli NIHJ-JC2; settings: NIHJJC2, 20 hours at 37° C., inoculum 0.005 ml of ca. 10^8 /ml, read-out: minimal inhibitory concentration (MIC)
Protocol: (§1) Using compound (1a-i), an in vitro antibacterial potency test was performed by the doubling dilution agar plate method. Each test strain was cultured in a sensitivity assay bouillon for 20 hours and 0.005 ml of the culture (viable cell count: ca. 10^8 /ml) was inoculated on a sensitivity assay agar medium containing a varying concentration of the antibacterial compound.
(§2) After 20 hours of incubation at 37° C., the minimal inhibitory concentration (MIC) was determined and expressed in units of μg/ml.

[2] = tested on: Proteus vulgaris; settings: 20 hours at 37° C., inoculum 0.005 ml of ca. 10^8 /ml, read-out: minimal inhibitory concentration (MIC)
Protocol: as §1, §2

[3] = tested on: Pseudomonas aeruginosa; settings: 20 hours at 37° C., inoculum 0.005 ml of ca. 10^8 /ml, read-out: minimal inhibitory concentration (MIC)
Protocol: as §1, §2

[4] = tested on: Serratia marcescens; settings: 20 hours at 37° C., inoculum 0.005 ml of ca. 10^8 /ml, read-out: minimal inhibitory concentration (MIC)
Protocol: as §1, §2

[5] = tested on: Staphylococcus aureus 209P; settings: 20 hours at 37° C., inoculum 0.005 ml of ca. 10^8 /ml, read-out: minimal inhibitory concentration (MIC)
Protocol: as §1, §2

[6] = tested on: Staphylococcus aureus, methicillin-resistant; settings: 20 hours at 37° C., inoculum 0.005 ml of ca. 10^8 /ml, read-out: minimal inhibitory concentration (MIC)
Protocol: as §1, §2

With `COC(=O)CCSCC1SC2C(NC(=O)Cc3ccccc3)C(=O)N2C1C(=O)O` (stereo not drawn) [compound (1a-i)] the MIC [1] was 12.5 µg/mL (≈ 28.5 µM), the MIC [2] was 0.39 µg/mL (≈ 0.889 µM) and the MIC [3] was 100 µg/mL (≈ 228 µM). The MIC [4] was 12.5 µg/mL (≈ 28.5 µM), the MIC [5] was 0.1 µg/mL (≈ 0.228 µM) and the MIC [6] was 100 µg/mL (≈ 228 µM).
